Key:
Assay type in all cases: in vivo
rice [1] = assay: Pre-emergence stage, crop damage; settings: 2 weeks
Source text: (§1) The activity level criteria for plant damage (i.e., growth control rate) are as follows:
(§2) The above growth control rates are fresh weight control rates.
(§3) Monocotyledonous and dicotyledonous weed seeds (Descurainia sophia, Capsella bursa-pastoris, Abutilon theophrasti, Galium aparine, Stellaria media, Lithospermum arvense, Rorippa indica, Alopecurus aequalis, Alopecurus japonicus, Eleusine indica, Beckmannia syzigachne, Sclerochloa dura, Phleum paniculatum, Veronica didyma, Bromus japonicus, Aegilops tauschii, Phalaris arundinacea, Amaranthus retroflexus, Chenopodiaceae, Commelina communis, Sonchus arvensis, Convolvulus arvensis, Cirsium setosum, Solanumnigrum, Acalypha australis, Digitaria sanguinalis, Echinochloa crusgalli, Setaria viridis, Setaria glauca, Leptochloa chinensis, Monochoria vaginalis, Sagittaria trifolia, Scirpus juncoides, Cyperus rotundus, Cyperus iria, Cyperus difformis, Fimbristylis, Portulaca oleracea, Xanthium sibiricum, Pharbitis nil, Conyza Canadensis, etc.) and major crop seeds (wheat, corn, rice, soybean, cotton, oilseed rape, millet, sorghum, potato, sesame, ricinus, etc.) were placed in plastic pots filled with soil, then covered with 0.5-2 cm of soil, allowed to grow in a good greenhouse environment. The test plants were treated on the day of sowing. The tested compounds of the present invention were respectively dissolved in acetone, then added with Tween 80, diluted with a certain amount of water to obtain a solution of a certain concentration, and sprayed by a spray tower onto the plants. After the application, the plants were cultured for 2 weeks in the greenhouse, and then the experimental results of the weeding were recorded. The doses of the used compounds were 3, 6, 12, 24, 48 g ai./mu (1 mu=1/15 ha), and the averages were obtained from three replicates.

soy bean = assay: Pre-emergence stage, crop damage; settings: 2 weeks
Source text: as §1, §2, §3

wheat [2] = assay: Pre-emergence stage, crop damage; settings: 2 weeks
Source text: as §1, §2, §3

peanut = assay: Pre-emergence stage, crop damage; settings: 48 g a.i./mu, 2 weeks
Source text: as §1, §2, §3

cotton = assay: Pre-emergence stage, crop damage; settings: 2 weeks
Source text: as §1, §2, §3

corn = assay: Pre-emergence stage, crop damage; settings: 24 g a.i./mu, 2 weeks
Source text: as §1, §2, §3

rice [3] = assay: Post-emergence stage, crop damage; settings: 720 g a.i./ha, 3 weeks after application
Source text: as §1, §2
(§4) Monocotyledonous and dicotyledonous weed seeds (Descurainia sophia, Capsella bursa-pastoris, Abutilon theophrasti, Galium aparine, Stellaria media, Lithospermum arvense, Rorippa indica, Alopecurus aequalis, Alopecurus japonicus, Eleusine indica, Beckmannia syzigachne, Sclerochloa dura, Phleum paniculatum, Veronica didyma, Bromus japonicus, Aegilops tauschii, Phalaris arundinacea, Amaranthus retroflexus, Chenopodiaceae, Commelina communis, Sonchus arvensis, Convolvulus arvensis, Cirsium setosum, Solanumnigrum, Acalypha australis, Digitaria sanguinalis, Echinochloa crusgalli, Setaria viridis, Setaria glauca, Leptochloa chinensis, Monochoria vaginalis, Sagittaria trifolia, Scirpus juncoides, Cyperus rotundus, Cyperus iria, Cyperus difformis, Fimbristylis, Portulaca oleracea, Xanthium sibiricum, Pharbitis nil, Conyza Canadensis, etc.) and major crop seeds (wheat, corn, rice, soybean, cotton, oilseed rape, millet, sorghum, potato, sesame, ricinus, etc.) were placed in plastic pots filled with soil, then covered with 0.5-2 cm of soil, allowed to grow in a good greenhouse environment. Two weeks after sowing, the test plants were treated in the 2-3 leaf stage. The tested compounds of the present invention were respectively dissolved in acetone, then added with Tween 80 and 1.5 liter/ha of emulsifiable concentrate of methyl oleate as synergist, diluted with a certain amount of water to obtain a solution of a certain concentration, and sprayed by a spray tower onto the plants. After the application, the plants were cultured for 3 weeks in the greenhouse, and then the experimental results of the weeding were recorded. The doses of the used compounds were 45, 90, 180, 360, 720 g a.i./ha, and the averages were obtained from three replicates.

wheat [4] = assay: Post-emergence stage, crop damage; settings: 720 g a.i./ha, 3 weeks after application
Source text: as §1, §2, §4

[5] = tested on: Echinochloa crusgalli, Leptochloa chinensis, Digitaria sanguinalis, Descurainia Sophia, Capsella bursa-pastoris, Galium aparine, Stellaria media, Lolium …; assay: Field test, weed control; settings: applied after planting and pre-emergence at 300 g a.i./ha
Lolium perenne = assay: Weeding effect in pre-emergence stage; settings: 2 weeks
Source text: as §1, §2, §3

Veronica didyma = assay: Weeding effect in pre-emergence stage; settings: 2 weeks
Source text: as §1, §2, §3

Leptochloa chinensis [6] = assay: Weeding effect in pre-emergence stage; settings: 2 weeks
Source text: as §1, §2, §3

Descurainia sophia = assay: Weeding effect in pre-emergence stage; settings: 2 weeks
Source text: as §1, §2, §3

Echinochloa crusgalli = assay: Weeding effect in pre-emergence stage; settings: 2 weeks
Source text: as §1, §2, §3

Leptochloa chinensis [7] = assay: Weeding effect in post-emergence stage; settings: 720 g a.i./ha, 3 weeks after application
Source text: as §1, §2, §4

Digitaria sanguinalis = assay: Weeding effect in post-emergence stage; settings: 720 g a.i./ha, 3 weeks after application
Source text: as §1, §2, §4

Alopecurus japonicus = assay: Weeding effect in post-emergence stage; settings: 720 g a.i./ha, 3 weeks after application
Source text: as §1, §2, §4

Abutilon theophrasti = assay: Weeding effect in post-emergence stage; settings: 720 g a.i./ha, 3 weeks after application
Source text: as §1, §2, §4

CC1(C)CON(Cc2ccc(Cl)cc2Br)C1=O [Compound 1]
plant damage level (growth control rate) on crop, pre-emergence stage (rice [1]; 6 g a.i./mu): 0
plant damage level (growth control rate) on crop, pre-emergence stage (rice [1]; 12 g a.i./mu): 0
plant damage level (growth control rate) on crop, pre-emergence stage (rice [1]; 24 g a.i./mu): 1 (Level 1: growth control rate is greater than 0% and less than 15%)
plant damage level (growth control rate) on crop, pre-emergence stage (soy bean; 24 g a.i./mu): 0
plant damage level (growth control rate) on crop, pre-emergence stage (soy bean; 48 g a.i./mu): 0
plant damage level (growth control rate) on crop, pre-emergence stage (wheat [2]; 6 g a.i./mu): 0
plant damage level (growth control rate) on crop, pre-emergence stage (wheat [2]; 12 g a.i./mu): 0
plant damage level (growth control rate) on crop, pre-emergence stage (wheat [2]; 24 g a.i./mu): 0
plant damage level (growth control rate) on crop, pre-emergence stage (peanut): 0
plant damage level (growth control rate) on crop, pre-emergence stage (cotton; 12 g a.i./mu): 0
plant damage level (growth control rate) on crop, pre-emergence stage (cotton; 24 g a.i./mu): 0
plant damage level (growth control rate) on crop, pre-emergence stage (corn): 0
plant damage level (growth control rate) on crop, post-emergence stage (rice [3]): 1 (Level 1: growth control rate is greater than or equal to 5% and less than 20%)
plant damage level (growth control rate) on crop, post-emergence stage (wheat [4]): 1 (Level 1: growth control rate is greater than or equal to 5% and less than 20%)
control of major weeds in field test [5]: effectively controls
weeding effect in pre-emergence stage, activity level (growth control rate) (Lolium perenne; 6 g a.i./mu): 2 (Level 2: growth control rate is greater than or equal to 15% and less than 30%)
weeding effect in pre-emergence stage, activity level (growth control rate) (Lolium perenne; 24 g a.i./mu): 9
weeding effect in pre-emergence stage, activity level (growth control rate) (Veronica didyma; 6 g a.i./mu): 8 (Level 8: growth control rate is greater than or equal to 80% and less than 100%)
weeding effect in pre-emergence stage, activity level (growth control rate) (Veronica didyma; 12 g a.i./mu): 9
weeding effect in pre-emergence stage, activity level (growth control rate) (Veronica didyma; 24 g a.i./mu): 9
weeding effect in pre-emergence stage, activity level (growth control rate) (Leptochloa chinensis [6]; 3 g a.i./mu): 9
weeding effect in pre-emergence stage, activity level (growth control rate) (Leptochloa chinensis [6]; 6 g a.i./mu): 9
weeding effect in pre-emergence stage, activity level (growth control rate) (Leptochloa chinensis [6]; 12 g a.i./mu): 9
weeding effect in pre-emergence stage, activity level (growth control rate) (Leptochloa chinensis [6]; 24 g a.i./mu): 9
weeding effect in pre-emergence stage, activity level (growth control rate) (Descurainia sophia; 3 g a.i./mu): 7 (Level 7: growth control rate is greater than or equal to 70% and less than 80%)
weeding effect in pre-emergence stage, activity level (growth control rate) (Descurainia sophia; 6 g a.i./mu): 9
weeding effect in pre-emergence stage, activity level (growth control rate) (Descurainia sophia; 12 g a.i./mu): 9
weeding effect in pre-emergence stage, activity level (growth control rate) (Descurainia sophia; 24 g a.i./mu): 9
weeding effect in pre-emergence stage, activity level (growth control rate) (Echinochloa crusgalli; 3 g a.i./mu): 8 (Level 8: growth control rate is greater than or equal to 80% and less than 100%)
weeding effect in pre-emergence stage, activity level (growth control rate) (Echinochloa crusgalli; 6 g a.i./mu): 9
weeding effect in pre-emergence stage, activity level (growth control rate) (Echinochloa crusgalli; 12 g a.i./mu): 9
weeding effect in pre-emergence stage, activity level (growth control rate) (Echinochloa crusgalli; 24 g a.i./mu): 9
weeding effect in post-emergence stage, activity level (growth control rate) (Leptochloa chinensis [7]): 5 (Level 5: growth control rate is greater than or equal to 85%)
weeding effect in post-emergence stage, activity level (growth control rate) (Digitaria sanguinalis): 5 (Level 5: growth control rate is greater than or equal to 85%)
weeding effect in post-emergence stage, activity level (growth control rate) (Alopecurus japonicus): 4 (Level 4: growth control rate is greater than or equal to 60% and less than 85%)
weeding effect in post-emergence stage, activity level (growth control rate) (Abutilon theophrasti): 5 (Level 5: growth control rate is greater than or equal to 85%)

— US20240327359A1, “3-ISOXAZOLIDINONE COMPOUND, PREPARATION METHOD, HERBICIDAL COMPOSITION AND APPLICATION THEREOF” (QINGDAO KINGAGROOT CHEMICAL COMPOUND CO., LTD., priority 2021, published 2024)
